Laboratory results as given in the supplement of paper PMC10307832.

How the values were obtained:
Assay in all cases: relative viability (nuclei count vs DMSO), 5 days (fraction); higher = more cells survive
Kobe2602 + Pemetrexed = compound: C1=CC(=CC=C1NC(=S)NNC2=C(C=C(C=C2[N+](=O)[O-])C(F)(F)F)[N+](=O)[O-])F [Kobe2602] + Nc1nc2[nH]cc(CCc3ccc(C(=O)N[C@@H](CCC(=O)O)C(=O)O)cc3)c2c(=O)[nH]1 [Pemetrexed] (partner 0.2 µM)
Summary of the method: (§1)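 Cells from lung cancer lines were seeded into 1536-well plates and, one day later, dosed by pin tool. Treatments were either a single drug or a fixed dose of an anchor drug with five library-drug doses (not always all listed) in √10 steps. After 5 days, nuclei were stained in a one-step fixation (final 0.05% Triton X-100, 1% formaldehyde, 1 ug/ml Hoechst) and counted on 4× images, and relative viability is the treated-to-vehicle nuclei ratio, as the median of duplicate plates.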

Zosuquidar + Lapatinib = compound: O[C@@H](COc1cccc2ncccc12)CN1CCN([C@@H]2c3ccccc3[C@@H]3[C@H](c4ccccc42)C3(F)F)CC1 [Zosuquidar] + CS(=O)(=O)CCNCc1ccc(-c2ccc3ncnc(Nc4ccc(OCc5cccc(F)c5)c(Cl)c4)c3c2)o1 [Lapatinib] (partner 2 µM)
Summary of the method: as §1

Zosuquidar + Alpelisib = compound: O[C@@H](COc1cccc2ncccc12)CN1CCN([C@@H]2c3ccccc3[C@@H]3[C@H](c4ccccc42)C3(F)F)CC1 [Zosuquidar] + Cc1nc(NC(=O)N2CCC[C@H]2C(N)=O)sc1-c1ccnc(C(C)(C)C(F)(F)F)c1 [Alpelisib] (partner 2 µM)
Summary of the method: as §1

[1] = compound: COc1cc2nccc(Oc3ccc(NC(=O)C4(C(=O)Nc5ccc(F)cc5)CC4)cc3)c2cc1OC [Cabozantinib] + Nc1ncn([C@H]2C[C@H](O)[C@@H](CO)O2)c(=O)n1 [Decitabine] (partner 2 µM)
Summary of the method: as §1

UMC-11
relative viability (Kobe2602 + Pemetrexed; first compound 0.2 µM): 0.805 | relative viability (Kobe2602 + Pemetrexed; first compound 0.6325 µM): 0.83 | relative viability (Kobe2602 + Pemetrexed; first compound 2 µM): 0.822 | relative viability (Kobe2602 + Pemetrexed; first compound 6.325 µM): 0.788 | relative viability (Kobe2602 + Pemetrexed; first compound 20 µM): 0.779 | relative viability (Zosuquidar + Lapatinib; first compound 0.01 µM): 0.895 | relative viability (Zosuquidar + Lapatinib; first compound 0.03162 µM): 1.07 | relative viability (Zosuquidar + Lapatinib; first compound 0.1 µM): 0.89 | relative viability (Zosuquidar + Lapatinib; first compound 0.3162 µM): 1.14 | relative viability (Zosuquidar + Lapatinib; first compound 1 µM): 0.96 | relative viability (Zosuquidar + Alpelisib; first compound 0.01 µM): 0.877 | relative viability (Zosuquidar + Alpelisib; first compound 0.03162 µM): 1.03 | relative viability (Zosuquidar + Alpelisib; first compound 0.1 µM): 0.973 | relative viability (Zosuquidar + Alpelisib; first compound 0.3162 µM): 1.02 | relative viability (Zosuquidar + Alpelisib; first compound 1 µM): 0.961 | relative viability ([1]; first compound 0.02 µM): 0.654 | relative viability ([1]; first compound 0.06325 µM): 0.597 | relative viability ([1]; first compound 0.2 µM): 0.577 | relative viability ([1]; first compound 0.6325 µM): 0.615 | relative viability ([1]; first compound 2 µM): 0.554
